Experimental data published in patent US20110118277A1, “METHOD OF TREATING LIVER DISEASE” (priority 2003, published 2011).

Columns and labels:
[1] = tested on: Mouse hepatic oval cells (HOC); assay: Oval cell growth in culture (WST-8 cell number assay); type: cell-based
Experimental: Mouse hepatic oval cells (HOC) (from Dr. Bryon Petersen, University of Florida College of Medicine, Gainesville, Fla.) were maintained in culture with Iscove's modified DMEM according to the protocol described in PNAS 99: 8078-8083, 2002. To confirm that the cells retained their oval cell phenotype in our hands, expression of the embryonic isoform of pyruvate kinase (M2-PK) was evaluated by immunocytochemistry and immunoblot.
Sub-confluent HOC were harvested by gentle trypsinisation and resuspended in serum-free Iscove's modified Dulbecco's minimal essential medium (DMEM), at a density of 5,000 cells/100 μl/well in 96-well plates. […] After 44 hours, cell numbers were assessed by a further 4 h incubation with WST-8 tetrazolium reagent (Dojindo Molecular Technologies, Gaithersburg, Md.) as described in J Clin Invest 106: 501-509, 2000. In viable cells, the tetrazolium salt is metabolized to a colorimetric dye and cell number is proportional to the signal intensity at 450 nm Therefore, this assay reliably detects treatment-induced changes in cell number.
Oval cells were cultured in serum free medium (SF), serum or serum plus increasing concentrations of NE (a) or ISO (c). After 48 hours, the numbers of cells in culture were evaluated. […] Cell numbers were determined after 48 hours.

[2] = tested on: TNF-α; assay: Hepatic expression of TNF-α mRNA in whole liver RNA; type: in vivo, mouse; conditions: 3 controls and 3 PRZ-treated mice
From the text: The latter possibility merits further investigation because it has been reported that TNF-a increases in mice that are fed choline-deficient diets and that proliferating hepatic oval cells produce this cytokine. Moreover, it has been reported that TNF-α is required for oval cell expansion because this response is abrogated by genetic disruption of TNFR1. These observations are particularly intriguing because TNF-α and TNFR1 are necessary for liver regeneration after PH and other types of liver injury. There is strong evidence for cross talk between signaling mechanisms that are activated by TNF-α and those that are modulated by sympathetic neurotransmitters, such as NE. In addition, NE regulates TNF production and vice versa. Thus, SNS inhibition may promote HPC accumulation and decrease liver injury indirectly, by effecting TNF-α activity. […] However, before firm conclusions can be drawn, these studies must be extended to include more animals and assays for TNF-α protein and activity will be necessary.

[3] = tested on: hepatocyte DNA synthesis; conditions: rats pre-treated immediately before PH; cited from earlier work
[4] = tested on: C57BL-6 mice fed HMCDE diet; assay: HMCDE diet-induced liver injury in mice: body weight, liver mass, histology, serum ALT, tolerability; type: in vivo, mouse
Experimental: C57BL-6 mice, 10-18 weeks old, were from Jackson Laboratory (Bar Harbor, Me.) were subjected to the following experiments.
In addition to choline deficiency the diet used here was also 50% deficient in methionine to enhance oxidative injury to the liver, This diet was administered with ethionine (0.15%) in drinking water (Hepatology 2001; 34; 519-522) and the combination treatment is hereafter referred to as half methionine choline deficient diet plus ethionine (HMCDE).
Chemical sympathectomy was achieved by intra-peritoneal (IP) injection of 6-hydroxydopamine (6-OHDA), 100 mg/kg for 5 consecutive days as described in Ann Surg 2001; 233:266-275. Thereafter, 6-OHDA was administered at 100 mg/kg i.p., three times per week to ensure continued sympathectomy.
Mice were divided into 4 groups, with each group containing 10 to 12 animals. […] Therefore, final results are derived from ˜100 mice (10-12 mice/group/experiment×2 experiments).
All mice were weighed at the beginning of the feeding period and weekly thereafter until killed. At the time of sacrifice, sera were collected from all the animals in each group and liver tissue from half the animals in each group. Collected liver tissues were either fixed in buffered formalin, preserved in OCT compound (Sakura, Torrance, Calif.) and processed for histology or snap frozen in liquid nitrogen and stored at −80° C. until RNA was isolated. The livers from the remaining animals in each group were prepared for flow cytometry as described below.
Wedges of liver from each of the mice were prepared for histology and immunochemistry as described previously (Am J Pathol 2002: 161:5210530 and Nat. Med. 2000; 6: 998-1003). For histology, tissues were formalin fixed, paraffin embedded and […] sections were stained with hematoxylin and eosin (H&E). Coded samples were examined by an experienced liver pathologist who was blinded to treatment groups. Hepatocellular fat accumulation was scored as, no fat 0, focal fat accumulation in <1% of the hepatocytes=F, fat in 1-30% of the hepatocytes 1+, fat in 31-60% of the hepatocytes=2+, and fat in 61-100% of the hepatocytes3+. To evaluate the amount of hepatocyte necrosis, the number of necrotic hepatocytes was counted in 10 randomly selected fields with a 20× lens.
Sera from all the animals were analysed for alanine aminotransferase (ALT) activity by the Clinical Chemistry laboratory of the Johns Hopkins Hospital.

[5] = tested on: NK-T cells; assay: Flow cytometry of liver NK-T cells in HMCDE-fed mice; type: in vivo, mouse; conditions: HMCDE-treated mice; HMCDE alone 8±1%; mean±SEM
Experimental: Briefly, livers were carefully removed and homogenized in Stomacher80 (Seawood, England). The homogenate was then passed through a 100-μm wire mesh and liver cells were collected by centrifugation at 450 g. Mononuclear cells were purified from this fraction by centrifugation at 900 g over 35% Percoll gradients (Amersham Pharmacia Biotech) and incubated with normal mouse serum (Sigma, St Louis, Mo.) and Fc-receptor block (anti-CD16/CD32) to prevent nonspecific binding, plus APC-conjugated anti-mouse Thy-1.2 (the C57BL-6 form of the Thy-1 antibody) and antibodies directed against hematopoietic lineage markers (LIN, a mix of anti-mouse CD4, CD8, CD3, CD45, CD19, Mac-1, Gr-1, Ter119). For NK-T cell labelling, the mononuclear cells were incubated with FTTC-conjugated anti-mouse NK-1.1 and PE-conjugated anti-mouse CD3. All antibodies were from Pharmingen except anti-mouse Ter119, which was from Cedarline lab, Canada. After incubation, pellets were washed to remove unbound antibodies, fixed with 2% formaldehyde and evaluated by FACS (Becton Dickenson). As described in Science 1999; 284:1168-1170, LN^−ve/Thy-1^+ve cells, were classified as putative bone marrow-derived, hepatic progenitor cells. Data was analyzed by Cell Quest software (Becton Dickenson) to determine changes in these cell populations in different treatment groups.

[6] = tested on: healthy rats; conditions: healthy rats treated chronically; cited from earlier work
[7] = tested on: norepinephrine; conditions: 6-OHDA 100 mg/kg i.p. regimen, previously shown; cited from earlier work

SMILES	effect on proliferation induced by NE plus ISO ([1]; PRZ 10 μM, NE (100 nM)+ISO (100 nM))	effect on NE-induced oval cell proliferation ([1]; prazosin 10 μM, pertussis toxin 100 ng/ml, PD98059 20 μM, SB202190 10 μM, 48 hours)	hepatic TNF-α gene expression versus HMCDE-treated controls [2]	compensatory induction of hepatocyte DNA synthesis after partial hepatectomy [3]	weight loss versus HMCDE group ([4]; FIG. 1, 4 weeks of feeding, P<0.05)	liver cell death / necrosis, representative liver section ([4]; FIG. 3A, H&E)	hepatocellular fat accumulation score, representative liver section ([4]; FIG. 3A, H&E, representative HMCDE animal 2+)	fat score versus HMCDE alone ([4]; FIG. 3B)	numbers of necrotic hepatocytes versus HMCDE diet alone ([4]; FIG. 3C, P<0.05)	serum alanine aminotransferase (ALT) versus HMCDE-fed mice ([4]; FIG. 3D, P<0.03)	mean body weight lost ([4]; mice fed HMCDE diet, 4 weeks, HMCDE alone lost 3 g) [g]	body weight lost, % of starting body weight ([4]; mice fed HMCDE diet, 4 weeks, HMCDE alone lost 12%) [%]	numbers of NK-T cells in the liver, % liver mononuclear cells [5] [%]	liver weight, body weight, ratio and serum ALT [6]	norepinephrine in rodent tissues [7]
COc1cc2nc(N3CCN(C(=O)c4ccco4)CC3)nc(N)c2cc1OC [PRZ, prazosin]	blocks catecholamine-induced proliferation	significantly attenuated	No differences in TNF-a gene expression were detected	inhibited											
NCCc1cc(O)c(O)cc1O [6-OHDA, 6-hydroxydopamine]					lost less weight than the HMCDE group	minimal necrosis	F+	significantly less fat than the HMCDE alone group	reduced	lower ALT levels	2	8	3.6 ± 0.6	liver weight, body weight and liver weight to body weight ratios increase significantly without any associated increase in serum ALT values	virtually deplete norepinephrine in rodent tissues
